Measured values reported in PubChem BioAssay (NCI).
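Assay format: 96-well plates, 48-hour exposure. Definition used: TGI = concentration required for complete inhibition of growth.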

Key:
Assay in all cases: inhibition of tumour cell growth, NCI panel, 48 h
HS 578T breast = tested on: HS 578T breast
CCRF-CEM leukemia = tested on: CCRF-CEM leukemia
SW-620 colon = tested on: SW-620 colon
SN12C renal = tested on: SN12C renal
SK-MEL-2 melanoma = tested on: SK-MEL-2 melanoma
OVCAR-3 ovarian = tested on: OVCAR-3 ovarian
NCI-H460 lung = tested on: NCI-H460 lung
MCF7 breast = tested on: MCF7 breast
HCC-2998 colon = tested on: HCC-2998 colon
NCI-H23 lung = tested on: NCI-H23 lung

Structure (SMILES)	TGI (HS 578T breast) [µM]	TGI (CCRF-CEM leukemia) [µM]	TGI (SW-620 colon) [µM]	TGI (SN12C renal) [µM]	TGI (SK-MEL-2 melanoma) [µM]	TGI (OVCAR-3 ovarian) [µM]	TGI (NCI-H460 lung) [µM]	TGI (MCF7 breast) [µM]	TGI (HCC-2998 colon) [µM]	TGI (NCI-H23 lung) [µM]
Cc1ccc(C(=O)Cc2nc3ncccc3[nH]c2=O)cc1	71.3	> 100	> 100	> 100	> 100	> 100	> 100	> 100	> 100	42.3
O=c1[nH]nc(-c2ccc([N+](=O)[O-])cc2)n1/N=C/c1ccc([N+](=O)[O-])cc1	> 100	> 100	> 100	> 100	> 100	> 100	> 100	> 100	> 100	> 100
O=C(Nc1ccc(Cl)cc1)c1cccc([N+](=O)[O-])c1O		11.7	> 100	> 74.7	12.5	9.09	> 53.5		14.4	6.55
CC(=O)c1cc2c(s1)C(=O)c1scc(C(C)=O)c1C2=O		0.59		0.426	1.3	0.271	1.27		3.58	1.72
Cc1cccc(/C=N/NC(=S)N2CCCCCC2)n1	> 100		> 100	0.805	19.2		1.18		> 100	> 37.1
OCCN1CN(c2nc(N3CN(CCO)C3)nc(N3CN(CCO)C3)n2)C1	66.7	50.6	> 100	39.5	41.9		36.1	46.9	41.7	50
COC(=O)C1=C(O)C(C(=O)OC)[C@]2(O)[C@H](C(=O)OC)[C@H]1C[C@@H](c1cccc(OC)c1)[C@H]2C(=O)OC (some centres not stated)	55		> 100	65.7	44.5		65.7	> 100	42.7	> 100
CSc1nc2c(c(=O)n1C)N=C(c1ccc(Cl)cc1)CC(c1ccccc1)N2 (configuration not stated)		72.6	> 100	39.4	29.5	> 100		27.2	53.1	62
Cc1c(C)c2c(c(N)c1C#N)C(=O)N(OS(=O)(=O)c1ccccc1)C2=O	> 100	> 100	47.2	51.4	> 100	59.8	> 100	> 100	> 100	
OCc1c2c(cc3c1CC1(C3)Cc3cc4c(c(CO)c3C1)CCC4)CCC2	36.9	25.9		32.4	36.7	28.3		44.6	35	29.8
Cc1c(NC(=S)N/N=C\C(=N/NC(=S)Nc2c(C)n(C)n(-c3ccccc3)c2=O)c2ccccc2)c(=O)n(-c2ccccc2)n1C	> 100		> 100		> 100	> 100	> 100		> 100	> 100
O=c1c(/C=C/c2c(O)ccc3ccccc23)nnc2sc(-c3cccc([N+](=O)[O-])c3)nn12	56.1		> 100	> 100	70.1	7.23				> 100
